Data: patent publication US12121522B2, “Methods of treating cancer with an mTOR inhibitor” (Revolution Medicines, Inc., priority 2022, dated 2024)
Values joined by “and” are separate entries in the source; they are usually repeats but may differ in a detail not shown here. Equal entries are not always repeated.

Key:
[1] = test system: HCC-1954 PIK3CA^H1047R breast cancer CDX; experiment: HCC-1954 breast cancer xenograft; type: in vivo, mouse; details: two values
Experimental: The antitumor activity of RMC-5552 as a single agent against tumors predicted to be dependent on the mTOR pathway and/or bearing specific PI3K/mTOR pathway-activating mutations (i.e., PIK3CA^mut, phosphatase and tensin homolog [PTEN^LOF], or co-mutation of both and tuberous sclerosis complex [TSC^LOF]) was evaluated in selected CDX and/or PDX models
Table 1. RMC-5552 was administered IP once weekly at 1, 3, 10, and 30 mg/kg. In the breast cancer MCF7 PIK3CA^[…] model, a higher dose of 50 mg/kg once weekly and an alternate dose regimen of 30 mg/kg every 10 days were also evaluated.

ctDNA (mean VAF) = experiment: ctDNA molecular response (Guardant Health algorithm); type: in vivo, human
Experimental: The mean±SEM of fractional change in mean VAF from C1D1 to C3D1 was determined by the Guardant Health Molecular Response Algorithm. […] Change in ctDNA is presented as mean±SEM of % change in mean VAF from C1D1 to C3D1. […] The results presented in FIGS. 8 and 9, supported by preclinical data, indicate that the dose range of 6 mg to 12 mg represents a “steep” dose-exposure-response relationship.

[2] = Clinical plasma PK, study RMC-5552-001; type: in vivo, human
Description: The plasma PK of RMC-5552 in subjects was characterized after single- and repeat-dose administration via IV infusion. […] Sparse PK samples were collected on other visit days as indicated in the clinical study protocol, including End of Infusion (EOI) samples on Cycle 1 Day 8 (C1D8), Cycle 2 Day 1 (C2D1), Cycle 3 Day 1 (C3D1), and Cycle 4 Day 1 ([…]) to approximate maximum concentration (Cmax). The plasma PK of RMC-5552 in subjects was characterized after single- and repeat dose administration via intravenous (IV) infusion. […] Sparse PK samples were collected on other visit days as indicated in the clinical study protocol, including EOI samples on C1D8, C2D1, C3D1, and […] to approximate Cmax. […] AUC0-last value was not calculated on C1D8, C2D1, C3D1, or […] due to limited PK time points (pre-dose and EOI).

Compound: CO[C@H]1C[C@@H]2CC[C@@H](C)[C@@](O)(O2)C(=O)C(=O)N2CCCC[C@H]2C(=O)O[C@H]([C@H](C)C[C@@H]2CC[C@@H](OC(=O)NCCOCCOCCOCCOCCOCCOCCOCCOCCC(=O)N3CCc4cc(Cn5nc(-c6ccc7oc(N)nc7c6)c6c(N)ncnc65)ccc4C3)[C@H](OC)C2)C[C@@H](O)[C@H](C)/C=C(\C)[C@@H](O)[C@@H](OC)C(=O)[C@H](C)C[C@H](C)/C=C/C=C/C=C/1C [RMC-5552]
- TGI ([1]; 1 mg/kg IP QW): 79% and 81%
- TGI ([1]; 3 mg/kg IP QW): 94% and 96%
- TGI ([1]; 10 mg/kg IP QW): 95% and 92%
- decrease in VAF (ctDNA (mean VAF); 67F NSCLC STK11, TSC2, KRAS L19F, 8 mg QW): reduction in lesion; 31%
- MR (molecular response) (ctDNA (mean VAF); endometrial PIK3CA, PTEN, TSC2, 8 mg QW): SD; MR 64%
- subjects with molecular response (ctDNA (mean VAF); of 6 subjects with SD as best response and a pathogenic mTOR pathway variant): 3
- molecular response (ctDNA (mean VAF); one subject on 12 mg initial dose): effective molecular complete response
- MR (molecular response) (ctDNA (mean VAF); uterine CaSarc TSC1 LOF, 10 mg single dose, 6 mg QW): 91%
- Mean Accumulation Ratio (AUC0-last on D15/D1) ([2]; 1.6 mg): 2.4
- Cmax ([2]; 1.6 mg 1-h IV inf, C1D1): 21.6 nM
- Mean AUC0-last ([2]; 1.6 mg, C1D1): 0.0297 µM·h
- Mean Dose Normalized AUC0-last ([2]; 1.6 mg, C1D1): 18.6 nM·h/mg
- Mean Unbound AUC0-last ([2]; 1.6 mg, C1D1): 0.0017 µM·h
- Mean Unbound Cmax ([2]; 1.6 mg, C1D1): 1.2 nM
- Cmax ([2]; 1.6 mg, C1D15): 35.3 nM
- Mean AUC0-last ([2]; 1.6 mg, C1D15): 0.0555 µM·h
- Mean Dose Normalized AUC0-last ([2]; 1.6 mg, C1D15): 34.7 nM·h/mg
- Mean Unbound AUC0-last ([2]; 1.6 mg, C1D15): 0.0032 µM·h
- Mean Unbound Cmax ([2]; 1.6 mg, C1D15): 2.0 nM
- Cmax ([2]; 1.6 mg, C2D1 (EOI)): 24.7 nM
- Mean Unbound Cmax ([2]; 1.6 mg, C2D1 (EOI)): 1.4 nM
- Mean Accumulation Ratio (AUC0-last on D15/D1) ([2]; 3 mg): 2.1
- Cmax ([2]; 3 mg 1-h IV inf, C1D1): 32 nM
- Mean AUC0-last ([2]; 3 mg, C1D1): 0.0439 µM·h
- Mean Dose Normalized AUC0-last ([2]; 3 mg, C1D1): 14.6 nM·h/mg
- Mean Unbound AUC0-last ([2]; 3 mg, C1D1): 0.0025 µM·h
- Mean Unbound Cmax ([2]; 3 mg, C1D1): 1.8 nM
- Cmax ([2]; 3 mg, C1D15): 67.5 nM
- Mean AUC0-last ([2]; 3 mg, C1D15): 0.0875 µM·h
- Mean Dose Normalized AUC0-last ([2]; 3 mg, C1D15): 29.2 nM·h/mg
- Mean Unbound AUC0-last ([2]; 3 mg, C1D15): 0.005 µM·h
- Mean Unbound Cmax ([2]; 3 mg, C1D15): 3.8 nM
- Cmax ([2]; 3 mg, C2D1 (EOI)): 74.2 nM
- Mean Unbound Cmax ([2]; 3 mg, C2D1 (EOI)): 4.2 nM
- Mean Accumulation Ratio (AUC0-last on D15/D1) ([2]; 6 mg): 1.6
- Cmax ([2]; 6 mg 1-h IV inf, C1D1): 101 nM
- Mean AUC0-last ([2]; 6 mg, C1D1): 0.137 µM·h
- Mean Dose Normalized AUC0-last ([2]; 6 mg, C1D1): 22.1 nM·h/mg
- Mean Unbound AUC0-last ([2]; 6 mg, C1D1): 0.0078 µM·h
- Mean Unbound Cmax ([2]; 6 mg, C1D1): 5.8 nM
- Mean t1/2 ([2]; 6 mg, C1D1): 8.1 h
- Unbound AUC0-last (Table 3) ([2]; 6 mg, C1D1): 0.0078 µM·h
- Unbound Cmax (Table 3) ([2]; 6 mg, C1D1): 5.6 nM
- Cmax ([2]; 6 mg, C1D8 (EOI)): 150 nM
- Mean Unbound Cmax ([2]; 6 mg, C1D8 (EOI)): 8.5 nM
- Cmax ([2]; 6 mg, C1D15): 155 nM
- Mean AUC0-last ([2]; 6 mg, C1D15): 0.219 µM·h
- Mean Dose Normalized AUC0-last ([2]; 6 mg, C1D15): 36.6 nM·h/mg
- Mean Unbound AUC0-last ([2]; 6 mg, C1D15): 0.0125 µM·h
- Mean Unbound Cmax ([2]; 6 mg, C1D15): 8.9 nM
- Mean t1/2 ([2]; 6 mg, C1D15): 8.2 h
- Unbound AUC0-last (Table 3) ([2]; 6 mg, C1D15): 0.0121 µM·h
- Unbound Cmax (Table 3) ([2]; 6 mg, C1D15): 8.7 nM
- Cmax ([2]; 6 mg, C2D1 (EOI)): 159 nM
- Mean Unbound Cmax ([2]; 6 mg, C2D1 (EOI)): 9.1 nM
- Cmax ([2]; 6 mg, C3D1 (EOI)): 187 nM
- Mean Unbound Cmax ([2]; 6 mg, C3D1 (EOI)): 10.7 nM
- Cmax ([2]; 6 mg, C4D1 (EOI)): 220 nM
- Mean Unbound Cmax ([2]; 6 mg, C4D1 (EOI)): 12.5 nM
- Mean Accumulation Ratio (AUC0-last on D15/D1) ([2]; 8 mg): 2.6
- Cmax ([2]; 8 mg 1-h IV inf, C1D1): 152 nM
- Mean AUC0-last ([2]; 8 mg, C1D1): 0.219 µM·h
- Mean Dose Normalized AUC0-last ([2]; 8 mg, C1D1): 27.4 nM·h/mg
- Mean Unbound AUC0-last ([2]; 8 mg, C1D1): 0.0125 µM·h
- Mean Unbound Cmax ([2]; 8 mg, C1D1): 8.6 nM
- Mean t1/2 ([2]; 8 mg, C1D1): 11.4 h
- Unbound AUC0-last (Table 3) ([2]; 8 mg, C1D1): 0.0117 µM·h
- Unbound Cmax (Table 3) ([2]; 8 mg, C1D1): 8.6 nM
- Cmax ([2]; 8 mg, C1D8 (EOI)): 242 nM
- Mean Unbound Cmax ([2]; 8 mg, C1D8 (EOI)): 13.8 nM
- Cmax ([2]; 8 mg, C1D15): 340 nM
- Mean AUC0-last ([2]; 8 mg, C1D15): 0.466 µM·h
- Mean Dose Normalized AUC0-last ([2]; 8 mg, C1D15): 58.3 nM·h/mg
- Mean Unbound AUC0-last ([2]; 8 mg, C1D15): 0.0266 µM·h
- Mean Unbound Cmax ([2]; 8 mg, C1D15): 19.4 nM
- Mean t1/2 ([2]; 8 mg, C1D15): 10.6 h
- Unbound AUC0-last (Table 3) ([2]; 8 mg, C1D15): 0.0266 µM·h
- Unbound Cmax (Table 3) ([2]; 8 mg, C1D15): 20.1 nM
- Cmax ([2]; 8 mg, C2D1 (EOI)): 282 nM
- Mean Unbound Cmax ([2]; 8 mg, C2D1 (EOI)): 16.1 nM
- Cmax ([2]; 8 mg, C3D1 (EOI)): 295 nM
- Mean Unbound Cmax ([2]; 8 mg, C3D1 (EOI)): 16.8 nM
- Cmax ([2]; 8 mg, C4D1 (EOI)): 208 nM
- Mean Unbound Cmax ([2]; 8 mg, C4D1 (EOI)): 11.8 nM
- Cmax ([2]; 10 mg 2-h IV inf, C1D1): 115 nM
- Mean Accumulation Ratio (AUC0-last on D15/D1) ([2]; 10 mg 2-h inf): 1.7
- Mean AUC0-last ([2]; 10 mg 2-h inf, C1D1): 0.366 µM·h
- Mean Dose Normalized AUC0-last ([2]; 10 mg 2-h inf, C1D1): 36.6 nM·h/mg
- Mean Unbound AUC0-last ([2]; 10 mg 2-h inf, C1D1): 0.0209 µM·h
- Mean Unbound Cmax ([2]; 10 mg 2-h inf, C1D1): 6.6 nM
- Mean t1/2 ([2]; 10 mg 2-h inf, C1D1): 13.5 h
- Cmax ([2]; 10 mg 2-h inf, C1D15): 181 nM
- Mean AUC0-last ([2]; 10 mg 2-h inf, C1D15): 0.527 µM·h
- Mean Dose Normalized AUC0-last ([2]; 10 mg 2-h inf, C1D15): 52.7 nM·h/mg
- Mean Unbound AUC0-last ([2]; 10 mg 2-h inf, C1D15): 0.03 µM·h
- Mean Unbound Cmax ([2]; 10 mg 2-h inf, C1D15): 10.3 nM
- Mean t1/2 ([2]; 10 mg 2-h inf, C1D15): 4.2 h
- Cmax ([2]; 10 mg 2-h inf, C2D1): 290 nM
- Mean Unbound Cmax ([2]; 10 mg 2-h inf, C2D1): 16.5 nM
- Unbound AUC0-last (Table 3) ([2]; 10 mg, C1D1, N=2): 0.0142 µM·h
- Unbound Cmax (Table 3) ([2]; 10 mg, C1D1, N=2): 11 nM
- Cmax ([2]; 12 mg 1-h IV inf, C1D1): 396 nM
- Mean AUC0-last ([2]; 12 mg, C1D1): 0.49 µM·h
- Mean Dose Normalized AUC0-last ([2]; 12 mg, C1D1): 40.9 nM·h/mg
- Mean Unbound AUC0-last ([2]; 12 mg, C1D1): 0.028 µM·h
- Mean Unbound Cmax ([2]; 12 mg, C1D1): 22.6 nM
- Mean t1/2 ([2]; 12 mg, C1D1): 8.3 h
- Unbound AUC0-last (Table 3) ([2]; 12 mg, C1D1, N=2): 0.0282 µM·h
- Unbound Cmax (Table 3) ([2]; 12 mg, C1D1, N=2): 22.6 nM
- exposure (Cmax and AUC0-last) on C1D15 relative to C1D1 ([2]; weekly repeat dosing, 1.6 to 8 mg): about 2 fold
